Test results: patent US9302999B2, “Substituted triazoles as herbicides” (E. I. DU PONT DE NEMOURS AND COMPANY, priority 2012, dated 2016)

How the values were obtained:
Format in all cases: in vivo
[1] = system: cocklebur (common cocklebur, Xanthium strumarium); assay: Test C pre-/postemergence: cocklebur
Description: Seeds of plant species selected from blackgrass (Alopecurus myosuroides), bromegrass, downy (downy bromegrass, Bromus tectorum), foxtail, green (green foxtail, Setaria viridis), ryegrass, Italian (Italian ryegrass, Lolium multiflorum), winter wheat (Triticum aestivum), wild oat (Avena fatua), galium (catchweed bedstraw, Galium aparine), bermudagrass (Cynodon dactylon), surinam grass (Brachiaria decumbens), cocklebur (common cocklebur, Xanthium strumarium), corn (Zea mays), large crabgrass (Digitaria sanguinalis), woolly cupgrass (Eriochloa villosa), foxtail, giant (giant foxtail, Setaria faberii), goosegrass (Eleusine indica), johnsongrass (Sorghum halepense), kochia (Kochia scoparia), lambsquarters (Chenopodium album), morningglory (Ipomoea coccinea), nightshade (eastern black nightshade, Solanum ptycanthum), nutsedge, yellow (yellow nutsedge, Cyperus esculentus), pigweed (Amaranthus retroflexus), ragweed (common ragweed, Ambrosia elation), soybean (Glycine max), common (oilseed) sunflower (Helianthus annuus), Russian thistle (Salsola kali) and velvetleaf (Abutilon theophrasti) were planted into a blend of loam soil and sand and treated preemergence with test chemicals formulated in a non-phytotoxic solvent mixture which included a surfactant.
(§1) At the same time, plants selected from these crop and weed species and also barley (winter barley, Hordeum vulgare), canarygrass (Phalaris minor), chickweed (common chickweed, Stellaria media) windgrass (Apera spica-venti) and deadnettle (henbit deadnettle, Lamium amplexicaule) were planted in pots containing Redi-Earth® planting medium (Scotts Company, 14111 Scottslawn Road, Marysville, Ohio 43041) comprising spaghnum peat moss, vermiculite, wetting agent and starter nutrients and treated with postemergence applications of test chemicals formulated in the same manner. Plants ranged in height from 2 to 18 cm (1- to 4-leaf stage) for postemergence treatments.
(§2) Treated plants and controls were maintained in a greenhouse for 13 to 15 days, after which time all species were compared to controls and visually evaluated. Plant response ratings, summarized in Table C, are based on a scale of 0 to 100 where 0 is no effect and 100 is complete control. A dash (-) response means no test result.

[2] = system: barley (winter barley, Hordeum vulgare); assay: Test C postemergence: barley
Description: as §1, §2

[3] = system: blackgrass (Alopecurus myosuroides); assay: Test D pre-/postemergence: blackgrass
Description: (§3) Seeds of plant species selected from bluegrass (annual bluegrass, Poa annua), blackgrass (Alopecurus myosuroides), canarygrass (Phalaris minor), chickweed (common chickweed, Stellaria media), galium (catchweed bedstraw, Galium aparine), bromegrass, downy (downy bromegrass, Bromus tectorum), field poppy (Papaver rhoeas), field violet (Viola arvensis), foxtail, green (green foxtail, Setaria viridis), deadnettle (henbit deadnettle, Lamium amplexicaule), ryegrass, Italian (Italian ryegrass, Lolium multiflorum), kochia (Kochia scoparia), lambsquarters (Chenopodium album), oilseed rape (Brassica napus), pigweed (Amaranthus retroflexus), Russian thistle (Salsola iberica), chamomile (scentless chamomile, Matricaria inodora), speedwell (bird's-eye speedwell, Veronica persica), barley, spring (spring barley, Hordeum vulgare), wheat, spring (spring wheat, Triticum aestivum), buckwheat, wild (wild buckwheat, Polygonum convolvulus), mustard, wild (wild mustard, Sinapis arvensis), oat, wild (wild oat, Avena fatua), radish, wild (wild radish, Raphanus raphanistrum), windgrass (Apera spica-venti), barley, winter (winter barley, Hordeum vulgare), and wheat, winter (winter wheat, Triticum aestivum) were planted into a silt loam soil and treated preemergence with test chemicals formulated in a non-phytotoxic solvent mixture which included a surfactant. At the same time, these same crop and weed species were planted in pots containing the planting medium comprising spaghnum peat moss, vermiculite, wetting agent and starter nutrients and treated with postemergence applications of the test chemicals formulated in the same manner. Plants ranged in height from 2 to 18 cm (1- to 4-leaf stage).
as §2, with “controlled growth environment” for “greenhouse”, “14” for “13”, “21 days” for “15 days,”, “D,” for “C,”

[4] = system: wheat, spring (spring wheat, Triticum aestivum); assay: Test D pre-/postemergence: wheat, spring
Description: as §3
as §2, with “controlled growth environment” for “greenhouse”, “14” for “13”, “21 days” for “15 days,”, “D,” for “C,”

[5] = Postemergence, 31 g ai/ha, scale 0 to 100 (0 no effect, 100 complete control)
[6] = Postemergence, 62 g ai/ha, scale 0 to 100 (0 no effect, 100 complete control)
[7] = Postemergence, 125 g ai/ha, scale 0 to 100, 0 no effect, 100 complete control
[8] = Postemergence, 250 g ai/ha, scale 0 to 100
[9] = Preemergence, 31 g ai/ha, scale of 0 to 100, 0 is no effect, 100 is complete control
[10] = Preemergence, 125 g ai/ha, scale 0 to 100, 0 no effect, 100 complete control
[11] = Preemergence, 250 g ai/ha, scale 0 to 100, 0 no effect, 100 complete control
[12] = 31 g ai/ha, scale 0 to 100 (0 no effect, 100 complete control)
[13] = 62 g ai/ha, scale 0 to 100 (0 no effect, 100 complete control)
[14] = 125 g ai/ha, scale 0 to 100, 0 no effect, 100 complete control
[15] = Postemergence, 250 g ai/ha, scale 0 to 100 (0 no effect, 100 complete control)
[16] = Preemergence, 31 g ai/ha, scale 0 to 100, 0 no effect, 100 complete control
[17] = Preemergence, 62 g ai/ha, scale 0 to 100
[18] = Preemergence, 125 g ai/ha, scale 0 to 100
[19] = Preemergence, 250 g ai/ha, scale 0 to 100
[20] = Postemergence, 16 g ai/ha, scale 0 to 100
[21] = Preemergence, 62 g ai/ha, scale 0 to 100, 0 no effect, 100 complete control
[22] = Preemergence, 62 g ai/ha, scale of 0 to 100, 0 is no effect, 100 is complete control

Structure (SMILES) | Plant response rating, Cocklebur [1, 5] | Plant response rating, Cocklebur [1, 6] | Plant response rating, Cocklebur [1, 7] | Plant response rating, Cocklebur [1, 8] | Plant response rating, Cocklebur [1, 9] | Plant response rating, Cocklebur [1, 10] | Plant response rating, Cocklebur [1, 11] | Plant response rating, Barley [2, 12] | Plant response rating, Barley [2, 13] | Plant response rating, Barley [2, 14] | Plant response rating, Barley ([2]; 250 g ai/ha, scale 0 to 100) | Plant response rating: Blackgrass [3, 5] | Plant response rating: Blackgrass [3, 6] | Plant response rating: Blackgrass [3, 7] | Plant response rating: Blackgrass [3, 15] | Plant response rating: Wheat, Spring [4, 5] | Plant response rating: Wheat, Spring [4, 6] | Plant response rating: Wheat, Spring [4, 7] | Plant response rating: Wheat, Spring [4, 15] | Plant response rating, Cocklebur [1, 21] | further results
FC(F)(F)COc1nn(-c2ccc(C(F)(F)F)cc2)nc1Cc1ccnc(C(F)(F)F)c1 [Compound 14, 4-[[5-(2,2,2-trifluoroethoxy)-2-[4-(trifluoromethyl)phenyl]-2H-1,2,3-triazol-4-yl]methyl]-2-(trifluoromethyl)pyridine] | 5 | 5 | 45 | 75 | 0 | 20 | 45 | 30 | 35 | 50 | 50 | 25 | 35 | 70 | 85 | 15 | 20 | 35 | 40 | – | Plant response rating, Blackgrass [3, 16]: 0; Plant response rating, Blackgrass [3, 17]: 0; Plant response rating, Blackgrass [3, 18]: 10; Plant response rating, Blackgrass [3, 19]: 60; Plant response rating, Wheat, Spring [4, 16]: 0; Plant response rating, Wheat, Spring [4, 17]: 0; Plant response rating, Wheat, Spring [4, 18]: 5; Plant response rating, Wheat, Spring [4, 19]: 15
COc1nn(-c2ccc(C(F)(F)F)cc2)nc1Cc1ccnc(C(F)(F)F)c1 [Compound 15, 4-[[5-methoxy-2-[4-(trifluoromethyl)phenyl]-2H-1,2,3-triazol-4-yl]methyl]-2-(trifluoromethyl)pyridine] | 5 | 60 | 75 | – | 0 | 65 | – | 35 | 35 | 50 | – | 15 | 30 | 50 | 85 | 25 | 30 | 40 | 50 | – | Plant response rating, Cocklebur ([1]; Preemergence, 16 g ai/ha, scale 0 (no effect) to 100 (complete control)): 0; Plant response rating, Barley ([2]; 16 g ai/ha, scale 0 to 100, 0 no effect, 100 complete control): 30; Plant response rating, Blackgrass [3, 20]: 15; Plant response rating, Blackgrass [3, 16]: 0; Plant response rating, Blackgrass [3, 17]: 25; Plant response rating, Blackgrass [3, 18]: 80; Plant response rating, Blackgrass [3, 19]: 90; Plant response rating, Wheat, Spring [4, 20]: 20; Plant response rating, Wheat, Spring [4, 16]: 0; Plant response rating, Wheat, Spring [4, 17]: 0; Plant response rating, Wheat, Spring [4, 18]: 0; Plant response rating, Wheat, Spring [4, 19]: 5
Cc1nn(-c2ccc(C(F)(F)F)cn2)nc1Oc1ccnc(C(F)(F)F)c1 [Compound 23] | 25 | 25 | 40 | 50 | 0 | 5 | 5 | 5 | 15 | 20 | 30 | 10 | 10 | 20 | 30 | 5 | 10 | 10 | 15 | 0 | Plant response rating, Blackgrass [3, 20]: 5; Plant response rating, Wheat, Spring [4, 20]: 0
Fc1ccc(-n2nc(Cc3ccnc(C(F)(F)F)c3)c(OC(F)F)n2)cc1 [Compound 25] | 15 | 20 | 20 | 20 | 0 | 0 | 30 | 20 | 25 | 30 | 30 | – | – | – | – | – | – | – | – | 0 | –
FC(F)Oc1nn(-c2ccc(C(F)(F)F)cc2)nc1Cc1ccnc(C(F)(F)F)c1 [Compound 26] | 10 | 15 | 55 | 65 | 0 | 15 | 55 | 20 | 30 | 30 | 40 | – | – | – | – | – | – | – | – | 5 | –
FC(F)(F)c1ccc(-n2nc(Cl)c(Cc3ccnc(C(F)(F)F)c3)n2)cc1 [Compound 28] | 10 | 15 | 20 | 25 | – | – | – | 10 | 15 | 20 | 35 | – | – | – | – | – | – | – | – | – | –
COc1nn(-c2cccc(F)c2)nc1Cc1ccnc(C(F)(F)F)c1 [Compound 139] | – | – | – | – | – | 0 | 5 | 5 | 10 | 35 | 40 | – | – | – | – | – | – | – | – | – | Plant response rating, Cocklebur [1, 22]: 0
Cc1nn(-c2ccnc(Cl)c2)nc1Cc1ccnc(C(F)(F)F)c1 [Compound 141] | 5 | – | – | – | – | – | – | 5 | 10 | 15 | 30 | – | – | – | – | – | – | – | – | – | –
Cc1nn(-c2ccc(F)cc2F)nc1Oc1ccnc(C(F)(F)F)c1 [Compound 146] | – | – | – | – | 0 | 0 | 0 | – | – | – | – | – | – | – | – | – | – | – | – | – | Plant response rating, Cocklebur [1, 22]: 0
